In patent US5604095A, “Unsymmetrically linked bisnaphthalimides as antitumor agents” (Cancer Therapy & Research Center, priority 1994, dated 1997):
Like-named read-outs stand apart in the source and are kept apart here.

Tests used:
[1] = test system: DLD-2 human colon adenocarcinoma; settings: literature; cited from earlier work
[2] = cited from earlier work
[3] = test system: MX-1 human breast carcinoma; settings: literature; cited from earlier work
B16 melanoma [4] = settings: Chen et al., 1993; cited from earlier work
B16 melanoma [5] = assay: In vivo tumor inhibiting activity vs. B16 melanoma in B6D2F1 mice; settings: q.d. × 5, i.p., day 7
Procedure: B16 Melanoma: B6D2F1 mice received i.p. inocula of B16 murine melanoma brei prepared from B16 tumors growing subcutaneously in mice (day 0). On day 1, rumored mice were treated with drugs or vehicle control; the route of drug administration and schedule were selected as appropriate for the study in question. If dosing information for agents was not available, the maximum tolerated dose (MTD) was determined in initial dose finding experiments in non-rumored mice. In a typical experiment, drugs were given at their MTD and 1/2 MTD doses i.p. on a daily×5 schedule.
The mean survival times of all groups were calculated, and results were expressed as mean survival of treated mice/mean survival of control mice (T/C)×100%. A T/C value of 150 means that the mice in the treated group lived 50% longer than those of the control group; this is sometimes referred to as the increase in life space, or ILS value.
Mice that survived for 60 days were considered long term survivors, or cures, in the B16 model. The universally accepted cut-off for activity in this model, which has been used for years by the National Cancer Institute, is T/C=125. Conventional use of B16 over the years has set the following levels of activity: T/C<125, no activity; T/C=125-150, weak activity; T/C=150-200, modest activity; T/C=200-300, high activity; T/C>300, with long term survivors, excellent, curative activity (Goldin et al., 1981).
Statistics were performed on the data using primarily the log rank p-value test.

LX-1 lung carcinoma = settings: literature; cited from earlier work
[6] = test system: solid tumor xenografts, human and murine leukemia, doxorubicin resistant cell lines, colon carcinoma cells; settings: cited from earlier work

| Compound | in vivo anti-tumor activity against DLD-2 [1] | water solubility ([2]; Sun et al., 1993) | in vivo anti-tumor activity against MX-1 [3] | activity against B16 melanoma (B16 melanoma [4]) | water solubility ([2]; reported) | Wt. Ch. (Day 7) (B16 melanoma [5]; 5 mg/kg) | Wt. Ch. (Day 7) (B16 melanoma [5]; 10 mg/kg) | anti-tumor efficacy in vivo against LX-1 lung carcinoma (LX-1 lung carcinoma) | toxicity ([6]; literature) | anti-tumor efficacy in vivo ([6]; solid tumor xenografts, leukemia, doxorubicin resistant lines, colon carcinoma) |
| --- | --- | --- | --- | --- | --- | --- | --- | --- | --- | --- |
| CS(=O)(=O)O.O=C1c2cccc3cc([N+](=O)[O-])cc(c23)C(=O)N1CCCCNCCCN1C(=O)c2cccc3cc([N+](=O)[O-])cc(c23)C1=O [XB596] | demonstrated in vivo anti-tumor activity | 45 µg/mL | demonstrated in vivo anti-tumor activity | ineffective against B16 melanoma | – | – | – | – | – | – |
| C[C@H](CNCCNC[C@@H](C)N1C(=O)c2cccc3cc([N+](=O)[O-])cc(c23)C1=O)N1C(=O)c2cccc3cc([N+](=O)[O-])cc(c23)C1=O [DMP840, (R,R)-2,2'[1,2-ethanediylbis[imino(1-methyl-2,1-ethanediyl)]]-bis[5-nitro-1H-benz[de]isoquinoline-1,3-(2H)-dione] dimethanesulfonate] | anti-tumor efficacy in vivo | – | anti-tumor efficacy in vivo | – | 3400 µg/mL | +4.6% | -0.33% | anti-tumor efficacy in vivo | no irreversible toxicities | anti-tumor efficacy in vivo |
